Where a name gives a salt, the structure may show the parent alone.
Columns and labels:
[1] = system: Pseudomonas aeruginosa-derived endotoxin-induced keratitis; experiment: Effect on endotoxin-induced keratitis (rabbit keratitis model, slit lamp scoring); assay type: in vivo
Experimental: (§1) The effect of Compound A when given as eye drops was investigated in a rabbit keratitis model using an endotoxin derived from Pseudomonas aeruginosa detected frequently in an ophthalmic infection as well as in a rabbit corneal alkaline erosion model.
(§2) Male Japanese albino rabbits each weighing about 2 to 2.5 kg purchased from FUKUZAKI rabbit-raising association were used. Each animal was maintained at a temperature of 24±4° C. and a humidity of 55±15%.
(§3) Compound A was given as a 1.0% Compound A eye drop formulation prepared by suspending Compound A in a formulation base (0.1% NaH2PO4, 0.1% polysorbate 80 and 0.9% NaCl, pH 5.0). As a positive control, a 0.1% betamethasone eye drop formulation (Rinderon™ solution, Sionogi) was used. In a control group, the formulation base was given.
16 Male Japanese albino rabbits each weighing 2 to 2.5 kg were used. The rabbits were divided into four groups each having 4 animals, which were anesthetized systemically by an intramuscular administration each of 1 ml/kg of an equal volume mixture of 5% ketamine hydrochloride and 2% xylazine hydrochloride. Each 10 μl of a 1% solution of Pseudomonas aeruginosa-derived endotoxin in physiological saline was infused into each corneal stroma of a rabbit. An anterior part of an eye was observed using a slit lamp every 5 days over a period from the day after the endotoxin infusion through the 30th day, and examined for the corneal opacity, the corneal ulcer and the vascularization, which were scored in accordance with the criteria shown in Table 1. Each test substance was started to be instilled immediately after the endotoxin infusion, and then given 4 times a day in the volume of 20 μl every 2 hours.
(§4) Rabbit Keratitis Scoring Criteria
(§5) Corneal opacity^remarks 1)
(§6) * Vascularization^remarks 1)
(§7) 2: ⅔ or more of corneal circumference Remarks 1) Each as score A x score B

[2] = system: alkaline erosive keratitis; experiment: Effects on alkaline erosive keratitis (rabbit corneal alkaline erosion model, slit lamp scoring); assay type: in vivo
Experimental: as §1, §2, §3
16 Male Japanese albino rabbits each weighing 2 to 2.5 kg were used. The rabbits were divided into four groups each having 4 animals, which were anesthetized systemically by an intramuscular administration each of 1 ml/kg of an equal volume mixture of 5% ketamine hydrochloride and 2% xylazine hydrochloride and also locally by an instillation of oxybuprocaine hydrochloride. A filter paper whose diameter was 10 mm and which had been immersed in 2N NaOH was brought into contact with the center of the right cornea of a rabbit for 1 minute to establish an alkaline erosion, and then the eye was rinsed immediately with 10 mL or more of physiological saline. The depth of the corneal ulcer and the vascularization were observed using a slit lamp every 5 days over a period from 5 days after the alkaline erosion through the 30th day, and scored in accordance with the criteria shown in Table 1. Each test substance was started to be instilled immediately after the alkaline erosion, and then given 4 times a day in the volume of 20 μl every 2 hours.
as §4, §5, §6, §7

[3] = system: Pseudomonas aeruginosa strain No. ho-134 corneal ulcer; experiment: Effects on pyocyanic corneal ulcer (inoculation of Pseudomonas aeruginosa into corneal stroma, corneal ulcer score); assay type: in vivo, rabbit; details: 50 μl four times a day
Experimental: Male Japanese albino rabbits each weighing about 2 kg purchased from KITAYAMA LABE S CO., LTD. were used. Each animal was maintained at a temperature of 23±3° C. and a humidity of 55±10%.
Compound A was given as a 1.0% Compound A eye drop formulation prepared by suspending Compound A in a formulation base (0.1% sodium acetate, 0.1% polysorbate 80 and 0.9% NaCl, pH 5.0). A 0.3% lomefloxacin (LFLX) hydrochloride was used as an. is antibacterial agent, and physiological saline *was used as a control.
After instilling 0.4% oxybuprocaine hydrochloride for a local anesthesia, a nictitating membrane was excised.
A causative microorganism used was a clinical isolate Pseudomonas aeruginosa strain No. ho-134. A rabbit was anesthetized systemically with 5% ketamine hydrochloride and 2% xylazine hydrochloride (equal volume mixture), and then inoculated by an infusion of 30 μl of a 3.9×10^4 CFU/ml cell suspension (1.17×10^3 CFU/cornea) using a 100 μl microsyringe fitted with a 30G needle into one corneal stroma of a rabbit.
An animal which had received an infusion of the cell suspension into the corneal stroma and whose inoculation was surely successful was grouped into one of [1] physiological saline instillation group (control, n=6) and [2]1.0% Compound A instillation group (Compound A group, n=6) as groups whose therapy was started immediately after the inoculation, and [3]1.0% Compound A instillation group (late Compound A group, n=5), [4]0.3% LFLX instillation group (LFLX group, n=6) and [5]1.0% Compound A instillation—0.3% LFLX instillation combination group (Compound A—LFLX combination group, n=6) as groups whose therapy was started 1 day after the inoculation (after onset of corneal ulcer), and 50 μl of each substance was given four times a day immediately after the inoculation or 1 day after the inoculation (after onset of corneal ulcer). […]
Each animal was examined for the corneal ulcer every 24 hours after the inoculation and scored in accordance with the rabbit corneal lesion scoring criteria (Barletta J. P. et al., Invest Ophthalmol Vis Sic 37:20-28, 1996) shown in Table 2. […]

[4] = instillation started 1 day after the inoculation (after onset of corneal ulcer), vs physiological saline (FIG. 9)

Row | SMILES | effect on corneal opacity ([1]; 5 to 30 days after endotoxin infusion, 1.0% eye drop, 4 times a day, vs control group (FIG. 1)) | effect on corneal ulcer ([1]; 5 to 30 days after endotoxin infusion, 1.0% eye drop, 4 times a day, vs control group (FIG. 2)) | effect on vascularization ([1]; 5 to 30 days after endotoxin infusion, 1.0% eye drop, 4 times a day, vs control group (FIG. 3)) | % inhibition of total keratitis score compared with the control group ([1]; 15th day after endotoxin infusion, 1.0% eye drop, 20 μl 4 times a day, statistically significant difference (FIG. 4)) | effect on corneal opacity ([2]; 5 to 30 days after corneal alkaline exposure, 1.0% eye drop, 4 times a day (FIG. 5)) | effect on vascularization ([2]; 5 to 30 days after corneal alkaline exposure, 1.0% eye drop, 4 times a day (FIG. 7)) | effect on corneal ulcer ([2]; 20th day after corneal alkaline exposure, 1.0% eye drop, 4 times a day (FIG. 6)) | corneal ulcer formation [3, 4] | corneal ulcer formation ([3]; instillation started immediately after the inoculation, vs physiological saline, statistically significant difference (FIG. 8)) | onset of the keratitis ([1]; over the observation period (5 to 30 days), 0.1% eye drop, 4 times a day, positive control) | effect on vascularization ([2]; 15th day after corneal alkaline exposure, 0.1% eye drop, 4 times a day, positive control)
1 | CC(C)(C)C(=O)Oc1ccc(S(=O)(=O)Nc2ccccc2C(=O)NCC(=O)[O-])cc1.O.O.O.O.[Na+] [Compound A, N-[o-(p-pivaloyloxybenzenesulfonyl-amino)benzoyl]glycine monosodium salt tetrahydrate] | inhibitory effects were observed | inhibitory effects were observed | inhibitory effects were observed | 59.4% | no effects were noted | no effects were noted | significant inhibitory effect | corneal ulcer formation was started to be inhibited 3 days after the inoculation | corneal ulcer formation was started to be inhibited 3 days after the inoculation | – | –
2 | C[C@H]1C[C@H]2[C@@H]3CCC4=CC(=O)C=C[C@]4(C)[C@@]3(F)[C@@H](O)C[C@]2(C)[C@@]1(O)C(=O)COP(=O)(O)O [betamethasone phosphate, reference compound] | – | – | – | – | – | – | – | – | – | inhibited almost completely | significant inhibitory effect
3 | CCn1cc(C(=O)O)c(=O)c2cc(F)c(N3CCNC(C)C3)c(F)c21 (stereo not drawn) [LFLX, lomefloxacin (LFLX) hydrochloride, reference compound] | – | – | – | – | – | – | – | no inhibition of the corneal ulcer formation | – | – | –
